Values of other authors in PubChem BioAssay AID1259409 (Chemical Carcinogenesis Research Information System (CCRIS), 2018).
Several values for one entry are separate records, joined by “and”; a condition that tells them apart may be missing. Equal entries are not always repeated.

System: rodent chemically induced tumor inhibition, incidence and multiplicity
Test: CCRIS tumor inhibitor studies
Settings: Route [Inhibitor]: ORAL; for tumour outcome (control, treated, inhibition, significance): Promoter: NONE USED; for outcome: Carcinogen: NONE, Strain/Sex: APC/MIN/MALE, Promoter: NONE

In the case of `CN1C(C(=O)Nc2ccccn2)=C(O)c2ccccc2S1(=O)=O`, the “tumour outcome (control, treated, inhibition, significance)” value (Carcinogen: N-BUTYL-N-(4-HYDROXYBUTYL)NITROSAMINE, 3817-11-6, Dose [Inhibitor]: 0, 0.0075% IN DIET FOR 12 WK BEGINNING POST CARCINOGEN TREATMENT (STUDY DURATION: 20 WK), Species: RAT, Strain/Sex: F344/MALE, Target Tissue: Type of Lesion: URINARY BLADDER: TRANSITIONAL CELL CARCINOMA, Dose [Carcinogen]: 0.05% IN DRINKING WATER FOR 8 WK) is listed as 10/12 (83%), 4/12 (33%), 60%, p<0.05, the “tumour outcome (control, treated, inhibition, significance)” value (Carcinogen: N-BUTYL-N-(4-HYDROXYBUTYL)NITROSAMINE, 3817-11-6, Dose [Inhibitor]: 0, 15 MG/KG DIET BEGINNING 1 WK PRIOR TO CARCINOGEN TREATMENT AND CONTINUING FOR DURATION OF STUDY (STUDY DURATION: 180, Species: MOUSE, Strain/Sex: BDF/MALE, Target Tissue: Type of Lesion: BLADDER: CARCINOMA, Dose [Carcinogen]: 7.5 MG IN 0.1 ML OF ETHANOL:WATER (20:80) 1/WK FOR 8 WK) is listed as 25/63 (40%), 5/69 (7%), 83%, p<0.0001 and the “tumour outcome (control, treated, inhibition, significance)” value (Carcinogen: N-BUTYL-N-(4-HYDROXYBUTYL)NITROSAMINE, 3817-11-6, Dose [Inhibitor]: 0, 30 MG/KG DIET BEGINNING 1 WK PRIOR TO CARCINOGEN TREATMENT AND CONTINUING FOR DURATION OF STUDY (STUDY DURATION: 180, Species: MOUSE, Strain/Sex: BDF/MALE, Target Tissue: Type of Lesion: BLADDER: CARCINOMA, Dose [Carcinogen]: 7.5 MG IN 0.1 ML OF ETHANOL:WATER (20:80) 1/WK FOR 8 WK) is listed as 28/65 (43%), 7/56 (13%), 70%, p<0.001. The “tumour outcome (control, treated, inhibition, significance)” value (Carcinogen: N-BUTYL-N-(4-HYDROXYBUTYL)NITROSAMINE, 3817-11-6, Dose [Inhibitor]: 0, 75 PPM IN DIET FOR 12 WK BEGINNING POST CARCINOGEN TREATMENT (STUDY DURATION: 20 WK), Species: RAT, Strain/Sex: F344/MALE, Target Tissue: Type of Lesion: URINARY BLADDER: TRANSITIONAL CELL CARCINOMA, Dose [Carcinogen]: 0.05% IN DRINKING WATER FOR 8 WK) was 18/20 (90%), 3/19 (16%), 82%, p<0.0001, the “tumour outcome (control, treated, inhibition, significance)” value (Carcinogen: N-METHYL-N-NITROSOUREA, 684-93-5, Dose [Inhibitor]: 130 MG/KG DIET DAILY STARTING 7 D AFTER LAST CARCINOGEN TREATMENT AND CONTINUING FOR 19 WK (STUDY DURATION: 21 WK), Species: RAT, Strain/Sex: SPRAGUE-DAWLEY/MALE, Target Tissue: Type of Lesion: INTESTINES: TUMOR, Dose [Carcinogen]: 0.8% IN 0.5 ML WATER 3 TIMES AT 2 D INTERVALS) was 9/9 (100%), 5/10 (50%), 50%, not calculated and 9/9 (100%), 3/9 (33%), 67%, not calculated and the “tumour outcome (control, treated, inhibition, significance)” value (Carcinogen: N-METHYLNITROSOUREA, 684-93-5, Dose [Inhibitor]: 0, 130 MG/KG VEGETABLE DIET (2.5 MG/D) BEGINNING 7 D POST LAST CARCINOGEN TREATMENT AND CONTINUING FOR STUDY DURATION (S, Species: RAT, Strain/Sex: CD-1/MALE, Target Tissue: Type of Lesion: INTESTINE: TUMOR, Dose [Carcinogen]: 0.5 ML OF 0.8% WATER SOLUTION 1/2 D FOR 6 D) was 9/9 (100%), 3/9 (33%), 67%, not calculated. The outcome (Dose [Inhibitor]: 12 PPM IN DIET FOR 2 MONTHS (STUDY DURATION: 2 MONTHS), Species: MOUSE, Target Tissue: Type of Lesion: DISTAL SMALL INTESTINE: TUMOR) was 10.38, 5.47, 47%, p<0.01, the outcome (Dose [Inhibitor]: 12 PPM IN DIET FOR 2 MONTHS (STUDY DURATION: 2 MONTHS), Species: MOUSE, Target Tissue: Type of Lesion: MIDDLE SMALL INTESTINE: TUMOR) was 23.75, 16.20, 32%, not significant and the outcome (Dose [Inhibitor]: 12 PPM IN DIET FOR 2 MONTHS (STUDY DURATION: 2 MONTHS), Species: MOUSE, Target Tissue: Type of Lesion: PROXIMAL SMALL INTESTINE: TUMOR) was 7.63, 14.80, -94%, p<0.01. For the same compound, the outcome (Dose [Inhibitor]: 25 PPM IN DIET FOR 2 MONTHS (STUDY DURATION: 2 MONTHS), Species: MOUSE, Target Tissue: Type of Lesion: DISTAL SMALL INTESTINE: TUMOR) was 10.38, 2.50, 76%, p<0.001, the outcome (Dose [Inhibitor]: 25 PPM IN DIET FOR 2 MONTHS (STUDY DURATION: 2 MONTHS), Species: MOUSE, Target Tissue: Type of Lesion: MIDDLE SMALL INTESTINE: TUMOR) was 23.75, 10.93, 38%, p<0.001 and the outcome (Dose [Inhibitor]: 50 PPM IN DIET FOR 2 MONTHS (STUDY DURATION: 2 MONTHS), Species: MOUSE, Target Tissue: Type of Lesion: DISTAL SMALL INTESTINE: TUMOR) was 10.38, 2.60, 75%, p<0.001. For the same compound, the outcome (Dose [Inhibitor]: 50 PPM IN DIET FOR 2 MONTHS (STUDY DURATION: 2 MONTHS), Species: MOUSE, Target Tissue: Type of Lesion: MIDDLE SMALL INTESTINE: TUMOR) was 23.75, 14.73, 38%, p<0.05, the outcome (Dose [Inhibitor]: 100 PPM IN DIET FOR 2 MONTHS (STUDY DURATION: 2 MONTHS), Species: MOUSE, Target Tissue: Type of Lesion: DISTAL SMALL INTESTINE: TUMOR) was 10.38, 1.60, 85%, p<0.001 and the outcome (Dose [Inhibitor]: 100 PPM IN DIET FOR 2 MONTHS (STUDY DURATION: 2 MONTHS), Species: MOUSE, Target Tissue: Type of Lesion: MIDDLE SMALL INTESTINE: TUMOR) was 23.75, 10.40, 56%, p<0.001.
